The text below walks through data of patent US20240239861A1, “GLUCAGON-RECEPTOR SELECTIVE POLYPEPTIDES AND METHODS OF USE THEREOF” (i2O Therapeutics, Inc., priority 2016, published 2024).

The target in assay [1] is human GLP-1R (Homo sapiens, UniProt P43220). The assay can be described thus: Peptide-receptor mediated cAMP accumulation (LANCE Ultra cAMP) in CHO-K1 cells transfected with human GLP-1R. The class given is cell-based. Conditions: hGLP1 pEC50 (cAMP mean (n = 3): 11 point curve starting at 1 nM, Table 3). In general terms: cAMP levels reflect the balance of adenylyl cyclase and phosphodiesterase activity.

Assay [2] deals with human GCGR (Homo sapiens, UniProt P47871). Kind of assay: Peptide-receptor mediated cAMP accumulation (LANCE Ultra cAMP) in CHO-K1 cells transfected with human GCGR. The class given is cell-based. The following applies: Table 3.

Where a SMILES comes first, the peptide text is derived from it. [ ]: non-standard residue; d: D form. Aib = CC(C)(N)C(=O)O

human GCGR, sequence (P47871 26-477): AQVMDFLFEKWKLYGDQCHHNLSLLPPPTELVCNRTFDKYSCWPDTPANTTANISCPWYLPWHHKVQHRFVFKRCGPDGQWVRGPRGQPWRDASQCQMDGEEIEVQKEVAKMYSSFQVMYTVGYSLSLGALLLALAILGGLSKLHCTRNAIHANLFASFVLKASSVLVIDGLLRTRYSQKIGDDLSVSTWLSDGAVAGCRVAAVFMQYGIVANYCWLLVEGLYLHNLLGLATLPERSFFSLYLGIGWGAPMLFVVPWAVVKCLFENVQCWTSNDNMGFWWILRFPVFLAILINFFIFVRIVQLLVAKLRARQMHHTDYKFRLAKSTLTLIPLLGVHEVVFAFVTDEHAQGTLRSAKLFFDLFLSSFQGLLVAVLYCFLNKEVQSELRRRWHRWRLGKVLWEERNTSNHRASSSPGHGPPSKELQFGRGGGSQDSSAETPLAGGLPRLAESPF
human GLP-1R, sequence (P43220 24-463): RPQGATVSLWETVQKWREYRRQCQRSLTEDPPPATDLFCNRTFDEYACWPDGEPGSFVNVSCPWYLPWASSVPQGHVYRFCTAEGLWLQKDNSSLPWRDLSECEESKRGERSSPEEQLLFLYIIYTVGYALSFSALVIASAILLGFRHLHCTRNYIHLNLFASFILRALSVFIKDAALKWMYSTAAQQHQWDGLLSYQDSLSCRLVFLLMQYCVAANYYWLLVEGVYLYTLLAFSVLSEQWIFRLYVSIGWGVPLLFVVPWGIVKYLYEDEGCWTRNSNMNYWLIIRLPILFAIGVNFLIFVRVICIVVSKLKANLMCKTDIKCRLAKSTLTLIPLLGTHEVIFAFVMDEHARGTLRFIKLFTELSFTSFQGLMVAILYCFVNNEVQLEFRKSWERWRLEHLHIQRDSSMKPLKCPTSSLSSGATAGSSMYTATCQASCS

Usually EC50 stands for the concentration at which the effect is half-maximal. With `CC(C)C[C@H](NC(=O)[C@H](Cc1ccc(O)cc1)NC(=O)[C@H](CCCCN)NC(=O)[C@H](CO)NC(=O)[C@H](Cc1ccc(O)cc1)NC(=O)[C@H](CC(=O)O)NC(=O)[C@H](CO)NC(=O)[C@@H](NC(=O)[C@H](Cc1ccccc1)NC(=O)[C@@H](NC(=O)CNC(=O)[C@H](Cc1c[nH]cn1)NC(=O)[C@H](CO)NC(=O)[C@@H](N)Cc1ccc(O)cc1)[C@@H](C)O)[C@@H](C)O)C(=O)N[C@@H](CC(=O)O)C(=O)N[C@@H](CO)C(=O)N[C@@H](C)C(=O)N[C@@H](CCCNC(=N)N)C(=O)N[C@@H](C)C(=O)N[C@@H](CCC(N)=O)C(=O)N[C@@H](CCC(=O)O)C(=O)N[C@@H](Cc1ccccc1)C(=O)N[C@H](C(=O)N[C@@H](CCCCN)C(=O)N[C@@H](Cc1c[nH]c2ccccc12)C(=O)N[C@@H](CC(C)C)C(=O)N[C@@H](CCC(=O)O)C(=O)N[C@@H](CC(=O)O)C(=O)N[C@@H](CCC(=O)O)C(=O)N1CCC[C@H]1C(=O)N[C@@H](CCCCN)C(=O)N[C@@H](CO)C(=O)N[C@@H](CCCCN)C(=O)N[C@@H](C)C(=O)N1CCC[C@H]1C(=O)N1CCC[C@H]1C(=O)N1CCC[C@H]1C(=O)N[C@@H](CO)C(=O)O)C(C)C` [Compound A71] (H-YSHGTFTSDYSKYLDSARAQEFVKWLEDEPKSKAPPPS-OH; N-terminus assumed), the EC50 in assay [1] is above 1 nM; in assay [2], 0.002 nM.
Turning to `CC(C)C[C@H](NC(=O)[C@H](Cc1ccc(O)cc1)NC(=O)[C@H](CCCCN)NC(=O)[C@H](CO)NC(=O)[C@H](Cc1ccc(O)cc1)NC(=O)[C@H](CC(=O)O)NC(=O)[C@H](CO)NC(=O)[C@@H](NC(=O)[C@H](Cc1ccccc1)NC(=O)[C@@H](NC(=O)CNC(=O)[C@H](Cc1c[nH]cn1)NC(=O)[C@H](CO)NC(=O)[C@@H](N)Cc1ccc(O)cc1)[C@@H](C)O)[C@@H](C)O)C(=O)N[C@@H](CC(=O)O)C(=O)N[C@@H](CO)C(=O)N[C@@H](C)C(=O)N[C@@H](CCCNC(=N)N)C(=O)N[C@@H](C)C(=O)N[C@@H](CCC(N)=O)C(=O)N[C@@H](CCC(=O)O)C(=O)N[C@@H](Cc1ccccc1)C(=O)N[C@H](C(=O)N[C@@H](CCCCN)C(=O)N[C@@H](Cc1c[nH]c2ccccc12)C(=O)N[C@@H](CC(C)C)C(=O)N[C@@H](CCC(=O)O)C(=O)N[C@@H](CC(=O)O)C(=O)N[C@@H](CCC(=O)O)C(=O)N1CCC[C@H]1C(=O)N[C@@H](CCCCN)C(=O)N[C@@H](CO)C(=O)N[C@@H](CCCCN)C(=O)N[C@@H](C)C(=O)N1CCC[C@H]1C(=O)N1CCC[C@H]1C(=O)N1CCC[C@H]1C(=O)N[C@@H](CO)C(N)=O)C(C)C` [Compound A74] (H-YSHGTFTSDYSKYLDSARAQEFVKWLEDEPKSKAPPPS-NH2; N-terminus assumed), the EC50 was above 1 nM in assay [1] and 0.00251 nM in assay [2].
For `CC(C)C[C@H](NC(=O)[C@H](Cc1ccc(O)cc1)NC(=O)[C@H](CCCCN)NC(=O)[C@H](CO)NC(=O)[C@H](Cc1ccc(O)cc1)NC(=O)[C@H](CC(=O)O)NC(=O)[C@H](CO)NC(=O)[C@@H](NC(=O)[C@H](Cc1ccccc1)NC(=O)[C@@H](NC(=O)CNC(=O)[C@H](Cc1c[nH]cn1)NC(=O)[C@H](CO)NC(=O)[C@@H](N)Cc1c[nH]c2ccccc12)[C@@H](C)O)[C@@H](C)O)C(=O)N[C@@H](CC(=O)O)C(=O)NC(C)(C)C(=O)N[C@@H](CCCCN)C(=O)N[C@@H](CCCNC(=N)N)C(=O)N[C@@H](C)C(=O)N[C@@H](CCC(N)=O)C(=O)N[C@@H](CCC(=O)O)C(=O)N[C@@H](Cc1ccccc1)C(=O)N[C@H](C(=O)NC(C)(C)C(=O)N[C@@H](Cc1c[nH]c2ccccc12)C(=O)N[C@@H](CC(C)C)C(=O)N[C@@H](CCC(=O)O)C(=O)N[C@@H](CC(=O)O)C(=O)N[C@@H](CCC(=O)O)C(=O)N1CCC[C@H]1C(=O)N[C@@H](CO)C(=O)N[C@@H](CO)C(=O)NCC(=O)N[C@@H](C)C(=O)N1CCC[C@H]1C(=O)N1CCC[C@H]1C(=O)N1CCC[C@H]1C(=O)N[C@@H](CO)C(=O)O)C(C)C` [Compound A75] (H-WSHGTFTSDYSKYLD[Aib]KRAQEFV[Aib]WLEDEPSSGAPPPS-OH; N-terminus assumed), the EC50 is above 1 nM in assay [1] and 0.00501 nM in assay [2].
For `CC(C)C[C@H](NC(=O)[C@H](Cc1ccc(O)cc1)NC(=O)[C@H](CCCCN)NC(=O)[C@H](CO)NC(=O)[C@H](Cc1ccc(O)cc1)NC(=O)[C@H](CC(=O)O)NC(=O)[C@H](CO)NC(=O)[C@@H](NC(=O)[C@H](Cc1ccccc1)NC(=O)[C@@H](NC(=O)CNC(=O)[C@H](Cc1c[nH]cn1)NC(=O)[C@H](CO)NC(=O)[C@@H](N)Cc1ccc(O)cc1)[C@@H](C)O)[C@@H](C)O)C(=O)N[C@@H](CC(=O)O)C(=O)NC(C)(C)C(=O)N[C@@H](CCCCN)C(=O)N[C@H](C(=O)N[C@@H](C)C(=O)N[C@@H](CCC(N)=O)C(=O)N[C@@H](CCC(=O)O)C(=O)N[C@@H](Cc1ccccc1)C(=O)N[C@H](C(=O)NC(C)(C)C(=O)N[C@@H](Cc1c[nH]c2ccccc12)C(=O)N[C@@H](CC(C)C)C(=O)N[C@@H](CCC(=O)O)C(=O)N[C@@H](CC(=O)O)C(=O)N[C@@H](CCC(=O)O)C(=O)N1CCC[C@H]1C(=O)N[C@@H](CO)C(=O)N[C@@H](CO)C(=O)NCC(=O)N[C@@H](C)C(=O)N1CCC[C@H]1C(=O)N1CCC[C@H]1C(=O)N1CCC[C@H]1C(=O)N[C@@H](CO)C(=O)O)C(C)C)[C@@H](C)O` [Compound A77] (H-YSHGTFTSDYSKYLD[Aib]KTAQEFV[Aib]WLEDEPSSGAPPPS-OH; N-terminus assumed) the same measures were above 1 nM and 0.00316 nM.
The corresponding values for `CC(C)C[C@H](NC(=O)[C@H](CCCCN)NC(=O)C(C)(C)NC(=O)[C@H](CC(=O)O)NC(=O)[C@H](CC(C)C)NC(=O)[C@H](Cc1ccc(O)cc1)NC(=O)[C@H](CCCCN)NC(=O)[C@H](CO)NC(=O)[C@H](Cc1ccc(O)cc1)NC(=O)[C@H](CC(=O)O)NC(=O)[C@H](CO)NC(=O)[C@@H](NC(=O)[C@H](Cc1ccccc1)NC(=O)[C@@H](NC(=O)CNC(=O)[C@H](Cc1c[nH]cn1)NC(=O)[C@H](CO)NC(=O)[C@@H](N)Cc1ccc(O)cc1)[C@@H](C)O)[C@@H](C)O)C(=O)N[C@@H](C)C(=O)N[C@@H](CCC(N)=O)C(=O)N[C@@H](CCC(=O)O)C(=O)N[C@@H](Cc1ccccc1)C(=O)N[C@H](C(=O)NC(C)(C)C(=O)N[C@@H](Cc1c[nH]c2ccccc12)C(=O)N[C@@H](CC(C)C)C(=O)N[C@@H](CCC(=O)O)C(=O)N[C@@H](CC(=O)O)C(=O)N[C@@H](CCC(=O)O)C(=O)N1CCC[C@H]1C(=O)N[C@@H](CO)C(=O)N[C@@H](CO)C(=O)NCC(=O)N[C@@H](C)C(=O)N1CCC[C@H]1C(=O)N1CCC[C@H]1C(=O)N1CCC[C@H]1C(=O)N[C@@H](CO)C(=O)O)C(C)C` [Compound A78] (H-YSHGTFTSDYSKYLD[Aib]KLAQEFV[Aib]WLEDEPSSGAPPPS-OH; N-terminus assumed) are above 1 nM and 0.0158 nM.
For `CC(C)C[C@H](NC(=O)[C@H](Cc1ccc(O)cc1)NC(=O)[C@H](CCCCN)NC(=O)[C@H](CO)NC(=O)[C@H](Cc1ccc(O)cc1)NC(=O)[C@H](CC(=O)O)NC(=O)[C@H](CO)NC(=O)[C@@H](NC(=O)[C@H](Cc1ccccc1)NC(=O)[C@@H](NC(=O)CNC(=O)[C@H](Cc1c[nH]cn1)NC(=O)[C@H](CO)NC(=O)[C@@H](N)Cc1ccc(O)cc1)[C@@H](C)O)[C@@H](C)O)C(=O)N[C@@H](CC(=O)O)C(=O)NC(C)(C)C(=O)N[C@@H](CCCCN)C(=O)N[C@@H](CCC(=O)O)C(=O)N[C@@H](C)C(=O)N[C@@H](CCC(N)=O)C(=O)N[C@@H](CCC(=O)O)C(=O)N[C@@H](Cc1ccccc1)C(=O)N[C@H](C(=O)NC(C)(C)C(=O)N[C@@H](Cc1c[nH]c2ccccc12)C(=O)N[C@@H](CC(C)C)C(=O)N[C@@H](CCC(=O)O)C(=O)N[C@@H](CC(=O)O)C(=O)N[C@@H](CCC(=O)O)C(=O)N1CCC[C@H]1C(=O)N[C@@H](CO)C(=O)N[C@@H](CO)C(=O)NCC(=O)N[C@@H](C)C(=O)N1CCC[C@H]1C(=O)N1CCC[C@H]1C(=O)N1CCC[C@H]1C(=O)N[C@@H](CO)C(=O)O)C(C)C` [Compound A79] (H-YSHGTFTSDYSKYLD[Aib]KEAQEFV[Aib]WLEDEPSSGAPPPS-OH; N-terminus assumed) the same measures were above 1 nM and 0.0631 nM.
As to `CC(C)C[C@H](NC(=O)[C@H](Cc1ccc(O)cc1)NC(=O)[C@H](CCCCN)NC(=O)[C@H](CO)NC(=O)[C@H](Cc1ccc(O)cc1)NC(=O)[C@H](CC(=O)O)NC(=O)[C@H](CO)NC(=O)[C@@H](NC(=O)[C@H](Cc1ccccc1)NC(=O)[C@@H](NC(=O)CNC(=O)[C@H](CCC(N)=O)NC(=O)[C@H](CO)NC(=O)[C@@H](N)Cc1ccc(O)cc1)[C@@H](C)O)[C@@H](C)O)C(=O)N[C@@H](CC(=O)O)C(=O)N[C@@H](CO)C(=O)N[C@@H](C)C(=O)N[C@@H](CCCNC(=N)N)C(=O)N[C@@H](C)C(=O)N[C@@H](CCC(N)=O)C(=O)N[C@@H](CCC(=O)O)C(=O)N[C@@H](Cc1ccccc1)C(=O)N[C@H](C(=O)N[C@@H](CCCCN)C(=O)N[C@@H](Cc1c[nH]c2ccccc12)C(=O)N[C@@H](CC(C)C)C(=O)N[C@@H](CCC(=O)O)C(=O)N[C@@H](CC(=O)O)C(=O)N[C@@H](CCC(=O)O)C(=O)N1CCC[C@H]1C(=O)N[C@@H](CCCCN)C(=O)N[C@@H](CO)C(=O)N[C@@H](CCCCN)C(=O)N[C@@H](CO)C(=O)N1CCC[C@H]1C(=O)N1CCC[C@H]1C(=O)N1CCC[C@H]1C(=O)N[C@@H](CO)C(=O)O)C(C)C` [Compound A81] (H-YSQGTFTSDYSKYLDSARAQEFVKWLEDEPKSKSPPPS-OH; N-terminus assumed), the EC50 in assay [1] was above 1 nM; in assay [2] it was 0.01 nM.
